Laboratory results taken from patent US11878965B2, “Inhibitors of peptidylarginine deiminases” (Gilead Sciences, Inc., priority 2020, dated 2024).
pIC50: −log10 of the molar value.

Biological target: human PAD4 (Homo sapiens (Human), UniProt Q9UM07)
Experiment: In Vitro PAD4 BAEE Biochemical Assay
Settings: geometric mean of multiple experiments
How it was run: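 Deimination of BAEE substrate (3 mM) measured as ammonia via o-phthalaldehyde–DTT isoindole fluorescence, 405/535 nm. Tag-free bacterially expressed human PAD4 at 5 nM with 2 mM calcium chloride, pH 7.6 MOPS buffer, 30 min compound preincubation then 2 h reaction, both at 25 °C.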

[1] = human PAD4, BAEE substrate, 5 nM PAD4, 2 mM calcium chloride, 3 mM BAEE

human PAD4, sequence (Q9UM07 2-663): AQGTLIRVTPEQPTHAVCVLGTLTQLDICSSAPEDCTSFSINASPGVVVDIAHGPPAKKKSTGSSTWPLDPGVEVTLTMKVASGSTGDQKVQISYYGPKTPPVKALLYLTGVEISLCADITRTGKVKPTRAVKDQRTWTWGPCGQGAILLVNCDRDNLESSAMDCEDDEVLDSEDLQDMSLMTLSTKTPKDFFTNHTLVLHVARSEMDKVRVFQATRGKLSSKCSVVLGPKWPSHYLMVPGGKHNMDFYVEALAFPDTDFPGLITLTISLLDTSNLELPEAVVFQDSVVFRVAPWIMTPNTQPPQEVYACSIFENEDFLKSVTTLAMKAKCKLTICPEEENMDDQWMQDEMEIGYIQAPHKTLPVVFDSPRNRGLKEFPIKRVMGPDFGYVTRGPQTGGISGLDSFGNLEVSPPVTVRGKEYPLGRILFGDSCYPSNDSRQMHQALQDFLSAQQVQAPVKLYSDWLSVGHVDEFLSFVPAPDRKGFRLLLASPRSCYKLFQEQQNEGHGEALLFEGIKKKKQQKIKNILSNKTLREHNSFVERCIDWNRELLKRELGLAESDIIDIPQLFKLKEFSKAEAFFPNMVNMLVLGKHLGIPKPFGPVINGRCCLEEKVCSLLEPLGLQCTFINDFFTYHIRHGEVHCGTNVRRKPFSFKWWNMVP

pIC50 [1] | pIC50 (recombinant PAD4 5 nM, 2 mM calcium chloride, 3 mM BAEE substrate) | SMILES
6.99 | – | COc1cc(C(=O)N2C[C@H](N)CCN2C)cc2nc(-c3cc4ccc([C@@H](C)NC(=O)c5ccc(F)cc5C)nc4n3CC3CC3)n(C)c12 [Example 195, N-((R)-1-(2-(5-((R)-5-amino-2-methylhexahydropyridazine-1-carbonyl)-7-methoxy-1-methyl-1H-benzo[d]imidazol-2-yl)-1-(cyclopropylmethyl)-1H-pyrrolo[2,3-b]pyridin-6-yl)ethyl)-4-fluoro-2-methylbenzamide]
6.98 | – | COc1cc(C(=O)N2C[C@H](N)CCN2C)cc2nc(-c3cc4ccc([C@@H](C)NC(=O)C56CC(Cl)(C5)C6)nc4n3CC3CC3)n(C)c12 [Example 186, N—((R)-1-(2-(5-((R)-5-amino-2-methylhexahydropyridazine-1-carbonyl)-7-methoxy-1-methyl-1H-benzo[d]imidazol-2-yl)-1-(cyclopropylmethyl)-1H-pyrrolo[2,3-b]pyridin-6-yl)ethyl)-3-chlorobicyclo[1.1.1]pentane-1-carboxamide]
6.85 | – | COc1cc(C(=O)N2CC[C@@H](O)[C@@H](N)C2)cc2nc(-c3cc4ccc(N(C(F)F)S(C)(=O)=O)nc4n3CC3CC3)n(C)c12 [Example 51, N-(2-(5-((3S,4R)-3-amino-4-hydroxypiperidine-1-carbonyl)-7-methoxy-1-methyl-1H-benzo[d]imidazol-2-yl)-1-(cyclopropylmethyl)-1H-pyrrolo [2,3-b]pyridin-6-yl)-N-(difluoromethyl) methanesulfonamide]
5.80 | – | COc1cc(C(=O)N2CCC[C@@H](N)C2)cc2nc(-c3cc4ccc(NS(C)(=O)=O)cc4n3CC3CC3)n(C)c12 [Example 1, (R)-N-(2-(5-(3-aminopiperidine-1-carbonyl)-7-methoxy-1-methyl-1H-benzo[d]imidazol-2-yl)-1-(cyclopropylmethyl)-1H-indol-6-yl)methanesulfonamide]
5.29 | – | COc1cc(C(=O)N2CC3(CCNC3)C2)cc2nc(-c3cc4ccc(N(C(F)F)S(C)(=O)=O)nc4n3CC3CC3)n(C)c12 [Example 67, N-(1-(cyclopropylmethyl)-2-(7-methoxy-1-methyl-5-(2,6-diazaspiro[3.4]octane-2-carbonyl)-1H-benzo[d]imidazol-2-yl)-1H-pyrrolo[2,3-b]pyridin-6-yl)-N-(difluoromethyl) methanesulfonamide]
6.49 | – | COc1cc(C(=O)N2C[C@H](N)CC[C@@H]2C)cc2nc(-c3cc4ccc(-c5c(C)ccnc5-c5sc(C)nc5C)nc4n3CC3CC3)n(C)c12 [Example 269, ((2S,5R)-5-amino-2-methylpiperidin-1-yl)(2-(1-(cyclopropylmethyl)-6-(2-(2,4-dimethylthiazol-5-yl)-4-methylpyridin-3-yl)-1H-pyrrolo[2,3-b]pyridin-2-yl)-7-methoxy-1-methyl-1H-benzo[d]imidazol-5-yl)methanone]
6.89 | – | COc1cc(C(=O)N2C[C@H](N)CCN2C)cc2nc(-c3cc4ccc([C@@H](C)NC(=O)c5c(F)cccc5F)nc4n3CC3CC3)n(C)c12 [Example 210, N-((R)-1-(2-(5-((R)-5-amino-2-methylhexahydropyridazine-1-carbonyl)-7-methoxy-1-methyl-1H-benzo[d]imidazol-2-yl)-1-(cyclopropylmethyl)-1H-pyrrolo[2,3-b]pyridin-6-yl)ethyl)-2,6-difluorobenzamide]
7.53 | – | COc1cc(C(=O)N2CCC[C@@H](N)C2)cc2nc(-c3cc4ccc(N5[C@@H](C)CCCS5(=O)=O)nc4n3CC3CC3)n(C)c12 [Example 105, ((R)-3-aminopiperidin-1-yl)(2-(1-(cyclopropylmethyl)-6-((S)-3-methyl-1,1-dioxido-1,2-thiazinan-2-yl)-1H-pyrrolo[2,3-b]pyridin-2-yl)-7-methoxy-1-methyl-1H-benzo[d]imidazol-5-yl) methanone]
– | 7.17 | COc1cc(C(=O)N2C[C@H](N)[C@@H]3CC[C@H]2C3)cc2nc(-c3cc4ccc([C@@H](C)NC(=O)[C@@H]5CC5(F)F)nc4n3CC3CC3)n(C)c12 [Example 311, (S)-N-((R)-1-(2-(5-((1S,4R,5R)-4-amino-2-azabicyclo[3.2.1]octane-2-carbonyl)-7-methoxy-1-methyl-1H-benzo[d]imidazol-2-yl)-1-(cyclopropylmethyl)-1H-pyrrolo[2,3-b]pyridin-6-yl)ethyl)-2,2-difluorocyclopropane-1-carboxamide]
6.18 | – | COc1cc(C(=O)N2CC3CCC3(N)C2)cc2nc(-c3cc4ccc(N(C(F)F)S(C)(=O)=O)nc4n3CC3CC3)n(C)c12 (stereo not drawn) [Example 78, N-(2-(5-(1-amino-3-azabicyclo[3.2.0]heptane-3-carbonyl)-7-methoxy-1-methyl-1H-benzo[d]imidazol-2-yl)-1-(cyclopropylmethyl)-1H-pyrrolo[2,3-b]pyridin-6-yl)-N-(difluoromethyl) methanesulfonamide]
4.43 | – | COc1cc(C(=O)N2C[C@@H]3CC[C@@](N)(C3)C2)cc2nc(-c3cc4ccc(N(C(F)F)S(C)(=O)=O)nc4n3CC3CC3)n(C)c12 [Example 61, N-(2-(5-((1R,5R)-1-amino-3-azabicyclo[3.2.1]octane-3-carbonyl)-7-methoxy-1-methyl-1H-benzo[d]imidazol-2-yl)-1-(cyclopropylmethyl)-1H-pyrrolo[2,3-b]pyridin-6-yl)-N-(difluoromethyl) methanesulfonamide]
7.03 | – | COc1cc(C(=O)N2C[C@H](N)CC[C@@H]2C)cc2nc(-c3cc4ccc(N(C(F)F)S(C)(=O)=O)nc4n3CC3CC3)n(C)c12 [Example 38, N-(2-(5-((2S,5R)-5-amino-2-methylpiperidine-1-carbonyl)-7-methoxy-1-methyl-1H-benzo[d]imidazol-2-yl)-1-(cyclopropylmethyl)-1H-pyrrolo [2,3-b]pyridin-6-yl)-N-(difluoromethyl) methanesulfonamide]
7.05 | – | COc1cc(C(=O)N2CCC[C@@H](N)C2)cc2nc(-c3cc4ccc(N(C5CC5)S(C)(=O)=O)nc4n3CC3CC3)n(C)c12 [Example 17, (R)-N-(2-(5-(3-aminopiperidine-1-carbonyl)-7-methoxy-1-methyl-1H-benzo[d]imidazol-2-yl)-1-(cyclopropylmethyl)-1H-pyrrolo [2,3-b]pyridin-6-yl)-N-cyclopropylmethanesulfonamide]
4.66 | – | COc1cc(C(=O)N2CCC3(CCC3N)C2)cc2nc(-c3cc4ccc(N(C(F)F)S(C)(=O)=O)nc4n3CC3CC3)n(C)c12 (stereo not drawn) [Example 66, N-(2-(5-(1-amino-6-azaspiro[3.4]octane-6-carbonyl)-7-methoxy-1-methyl-1H-benzo[d]imidazol-2-yl)-1-(cyclopropylmethyl)-1H-pyrrolo[2,3-b]pyridin-6-yl)-N-(difluoromethyl) methanesulfonamide]
6.99 | – | COc1cc(C(=O)N2CCC[C@@H](N)C2)cc2nc(-c3cc4cc(F)c([C@@H](C)NC(=O)c5cnn(C(F)F)c5)cc4n3CC3CC3)n(C)c12 [Example 151, N-((R)-1-(2-(5-((R)-3-aminopiperidine-1-carbonyl)-7-methoxy-1-methyl-1H-benzo[d]imidazol-2-yl)-1-(cyclopropylmethyl)-5-fluoro-1H-indol-6-yl)ethyl)-1-(difluoromethyl)-1H-pyrazole-4-carboxamide]
6.19 | – | COc1cc(C(=O)N2C[C@H](N)CC[C@@H]2C)cc2nc(-c3cc4ccc(N5C(=O)CCCC5C)nc4n3CC3CC3)n(C)c12 (stereo partly drawn) [Example 281, 1-(2-(5-((2S,5R)-5-amino-2-methylpiperidine-1-carbonyl)-7-methoxy-1-methyl-1H-benzo[d]imidazol-2-yl)-1-(cyclopropylmethyl)-1H-pyrrolo[2,3-b]pyridin-6-yl)-6-methylpiperidin-2-one]
6.64 | – | COc1cc(C(=O)N2C[C@H](N)CCN2C)cc2nc(-c3cc4ccc(C(C)(C)O)nc4n3CC3CC3)n(C)c12 [Example 249, (R)-(5-amino-2-methyltetrahydropyridazin-1(2H)-yl)(2-(1-(cyclopropylmethyl)-6-(2-hydroxypropan-2-yl)-1H-pyrrolo[2,3-b]pyridin-2-yl)-7-methoxy-1-methyl-1H-benzo[d]imidazol-5-yl)methanone]
6.74 | – | COc1cc(C(=O)N2C[C@H](N)CCN2C)cc2nc(-c3cc4ccc([C@@H](C)NC(=O)c5ccccc5C(F)F)nc4n3CC3CC3)n(C)c12 [Example 166, N-((R)-1-(2-(5-((R)-5-amino-2-methylhexahydropyridazine-1-carbonyl)-7-methoxy-1-methyl-1H-benzo[d]imidazol-2-yl)-1-(cyclopropylmethyl)-1H-pyrrolo[2,3-b]pyridin-6-yl)ethyl)-2-(difluoromethyl)benzamide]

SMILES | pIC50 [1] | pIC50 (recombinant PAD4 5 nM, 2 mM calcium chloride, 3 mM BAEE substrate)
COc1cc(C(=O)N2[C@H]3CC[C@@H]2[C@H](N)C3)cc2nc(-c3cc4ccc([C@@H](C)NC(=O)c5ccccc5C(F)F)nc4n3CC3CC3)n(C)c12 [Example 203, N-((R)-1-(2-(5-((1R,2R,4S)-2-amino-7-azabicyclo[2.2.1]heptane-7-carbonyl)-7-methoxy-1-methyl-1H-benzo[d]imidazol-2-yl)-1-(cyclopropylmethyl)-1H-pyrrolo[2,3-b]pyridin-6-yl)ethyl)-2-(difluoromethyl)benzamide] | 6.81 | –
COc1cc(C(=O)N2[C@H]3CC[C@@H]2[C@H](N)C3)cc2nc(-c3cc4ccc([C@@H](C)NC(=O)Cn5cccn5)nc4n3CC3CC3)n(C)c12 [Example 174, N-((R)-1-(2-(5-((1R,2R,4S)-2-amino-7-azabicyclo[2.2.1]heptane-7-carbonyl)-7-methoxy-1-methyl-1H-benzo[d]imidazol-2-yl)-1-(cyclopropylmethyl)-1H-pyrrolo[2,3-b]pyridin-6-yl)ethyl)-2-(1H-pyrazol-l-yl)acetamide] | 7.35 | –
COc1cc(C(=O)N2[C@H]3CC[C@@H]2[C@H](N)C3)cc2nc(-c3cc4ccc([C@@H](C)NC(C)=O)nc4n3CC3CC3)n(C3CC3)c12 [Example 131, N-((R)-1-(2-(5-((1R,2R,4S)-2-amino-7-azabicyclo[2.2.1]heptane-7-carbonyl)-1-cyclopropyl-7-methoxy-1H-benzo[d]imidazol-2-yl)-1-(cyclopropylmethyl)-1H-pyrrolo[2,3-b]pyridin-6-yl)ethyl)acetamide] | 7.59 | –
